Data published in patent US9222118B2 (priority 2008, dated 2015).
Where two headings read alike, the source gives them in different places.

Assays:
[1] = tested on: VSVΔG*-Ebolavirus GP; type: cell-based
[2] = tested on: VeroVP30 cells
[3] = tested on: EbolaΔVP30-GFP virus; assay: microbe, parasite or virus in culture; type: cell-based, Zaire ebolavirus; details: for % GFP inhibition: 5 µM; for IC50: read-out: IC50; for inhibition at 5 µM: Zaire ebolavirus, read-out: % GFP inhibition
[4] = tested on: Ebolavirus minigenome; type: cell-based
[5] = tested on: EbolaΔVP30-GFP; type: cell-based, Zaire ebolavirus

Molecule | % GFP inhibition [3] | % cell viability [2] | other results
1,2alpha-Epoxy-7-Deacetoxy-7-Oxo-Deoxyhydrogedunin | 75% | – | % infectivity of VSVΔG*-Ebolavirus GP [1]: 6.5±1.6%; CC50 [2]: > 10 µM; IC50 [3]: 7.12 µM
1-Deacetoxy-1-oxo-3,7-dideacetylkhivorin | 19% | 94% | –
3beta-Hydroxydeoxydesacetoxy-7-oxogedunin | 75% | 81% | –
6-Hydroxyangolensic acid methyl ester | 15% | 94% | –
7-Deacetoxy-3-deacetyl-7-oxokhivorin | 92% | 80% | CC50 [2]: > 10 µM; IC50 [3]: 0.56 µM
7-Deacetyldihydrogedunin | −30% | 85% | –
11alpha-Acetoxykhivorin | −47% | 93% | –
17-Allylamino-17-demethoxygeldanamycin [17-AAG] | – | – | % luc activity from the Ebolavirus minigenome [4]: 7.9%±1.5%; reduction of EbolaΔVP30 virus growth [5]: 92%; Infectivities of VSVΔG*-Ebolavirus GP standardized by the infectivities of VSVΔG*-VSV G ([1]; 10 μM): 110%
CC1(C)C(=O)[C@@H]2O[C@@H]2[C@@]2(C)C1C[C@@H](O)[C@]1(C)C2CC[C@@]2(C)[C@H](c3ccoc3)OC(=O)C3OC321 (stereo partly drawn) [1,2alpha-Epoxydeacetoxydihydrogedunin] | 75% | 77% | –
CC1(C)C2CC(=O)[C@]3(C)C(CC[C@@]4(C)[C@H](c5ccoc5)OC(=O)C5OC543)[C@@]2(C)[C@@H](O)C[C@H]1O (stereo partly shown) [1,3-Dideacetyl-7-deacetoxy-7-oxokhivorin] | 100% | 78% | CC50 [2]: > 10 µM; IC50 [3]: < 0.15 µM
CC(=O)O[C@@H]1C[C@H]2C(C)(C)[C@H](O)C[C@H](O)[C@]2(C)[C@H]2CC[C@@]3(C)[C@H](c4ccoc4)OC(=O)[C@H]4O[C@]43[C@@]21C [1,3-Dideacetylkhivorin] | 82% | 78% | –
CC1(C)C2CC(=O)[C@]3(C)C(CC[C@@]4(C)[C@H](c5ccoc5)OC(=O)[C@H]5O[C@]543)[C@@]2(C)C(=O)C[C@H]1O (stereo partly shown) [1,7-Dideacetoxy-1,7-dioxo-3-deacetylkhivorin] | 14% | 87% | –
CC(=O)O[C@@H]1CC(=O)[C@@]2(C)C(CC(=O)[C@]3(C)C2CC[C@@]2(C)[C@H](c4ccoc4)OC(=O)C4OC423)C1(C)C (stereo partly shown) [1,7-Dideacetoxy-1,7-dioxokhivorin] | 39% | 88% | –
CC(=O)O[C@@H]1C[C@H]2C(C)(C)CCC(=O)[C@]2(C)[C@H]2CC[C@@]3(C)[C@H](c4ccoc4)OC(=O)[C@H]4O[C@]43[C@@]21C [2,3-Dihydroisogedunin] | −17% | 91% | –
CC(=O)O[C@H]1C[C@@H](O)C(C)(C)[C@@H]2C[C@@H](OC(C)=O)[C@]3(C)[C@H](CC[C@@]4(C)[C@@H](c5ccoc5)OC(=O)[C@H]5O[C@@]534)[C@@]12C [3-Deacetylkhivorin] | 6% | 102% | –
CC(=O)O[C@@H]1CC2C(C)(C)[C@H](O)CC[C@]2(C)C2CC[C@@]3(C)[C@H](c4ccoc4)OC(=O)C4OC43[C@@]21C (stereo partly drawn) [3alpha-Hydroxydeoxodihydrogedunin] | 85% | 94% | –
CC(=O)O[C@H]1CC[C@]2(C)[C@H]3CC[C@@]4(C)[C@H](c5ccoc5)OC(=O)[C@H]5O[C@]54[C@]3(C)[C@H](OC(C)=O)C[C@H]2C1(C)C [3beta-Acetoxydeoxodihydrogedunin] | 90% | 80% | –
CC(=O)OC1CC2C(C)(C)[C@@H](O)CC[C@]2(C)C2CC[C@]3(C)[C@H](c4ccoc4)OC(=O)[C@H]4O[C@]43[C@]12C (stereo partly drawn) [3beta-Hydroxydeoxodihydrogedunin] | 75% | 79% | –
C=C1C2CC[C@@]3(C)[C@H](c4ccoc4)OC(=O)C[C@]13O[C@H]1CC(=O)C(C)(C)[C@H](C(OC(C)=O)C(=O)OC)[C@@]21C (stereo partly shown) [6-Acetoxyangolensic acid methyl ester] | 32% | 88% | –
CC(=O)O[C@H]1C[C@@H](OC(C)=O)C(C)(C)C2CC(=O)[C@]3(C)C(CC[C@@]4(C)[C@H](c5ccoc5)OC(=O)[C@H]5O[C@]543)[C@]21C (stereo partly shown) [7-Deacetoxy-7-oxokhivorin] | 26% | 90% | –

Molecule | % GFP inhibition [3] | % cell viability [2] | other results
CC(=O)O[C@H]1C[C@@H](OC(C)=O)C(C)(C)C2C[C@@H](O)[C@]3(C)C(CC[C@@]4(C)[C@H](c5ccoc5)OC(=O)[C@H]5O[C@]543)[C@]21C (stereo partly shown) [7-Deacetylkhivorin] | 13% | 91% | –
CC1(C)C(=O)C=C[C@]2(C)[C@H]3CC[C@@]4(C)[C@H](c5ccoc5)OC(=O)[C@H]5O[C@]54[C@]3(C)C=C[C@@H]12 [7-Desacetoxy-6,7-dehydrogedunin] | 2% | 70% | –
CC(=O)OC1CC(OC(C)=O)C2(C)C(CC(OC(C)=O)C3(C)C2CCC2(C)C(c4ccoc4)OC(=O)C4OC423)C1(C)C (stereo not shown) [7-Epikhivorin] | 4% | 79% | –
NS(=O)(=O)c1nn2cc(-c3ccccc3)nc2s1 [AEG 3482, 6-Phenylimidazo[2,1-b]-1,3,4-thiadiazole-2-sulfonamide] | – | – | % luc activity from the Ebolavirus minigenome [4]: 34.0%±8.0%; reduction of EbolaΔVP30 virus growth [5]: 5%; Infectivities of VSVΔG*-Ebolavirus GP standardized by the infectivities of VSVΔG*-VSV G ([1]; 10 μM): 135%
C=C1[C@@H]([C@@]2(C)C=CC(=O)C(C)(C)[C@@H]2CC(=O)OC)CC[C@@]2(C)[C@H](c3ccoc3)OC(=O)[C@H]3O[C@]132 [Andirobin] | – | – | % cell viability ([2]; green monkey): 91%; inhibition at 5 µM [3]: -12%
C=C1[C@@H]2CC[C@@]3(C)[C@H](c4ccoc4)OC(=O)C[C@]13O[C@H]1CC(=O)C(C)(C)[C@H](CC(=O)OC)[C@]12C [Angolensic acid, methyl ester] | 4% | 85% | –
CCc1cc(-c2n[nH]c(C)c2-c2ccc3c(c2)OCCO3)c(O)cc1O [CCT 018159, 4-[4-(2,3-Dihydro-1,4-benzodioxin-6-yl)-5-methyl-1H-pyrazol-3-yl]-6-ethyl-1,3-benzenediol] | – | – | % luc activity from the Ebolavirus minigenome [4]: 8.8%±2.6%; reduction of EbolaΔVP30 virus growth [5]: 97%; effect on VSVΔG*-Ebolavirus GP infectivity [1]: slightly reduced; Infectivities of VSVΔG*-Ebolavirus GP standardized by the infectivities of VSVΔG*-VSV G ([1]; 10 μM): 71%; reduction in Ebolavirus GP-dependent virus infection ([1]; 10 μM): ~30%
CC1(C)C=CC(=O)[C@@]2(C)C1CC(=O)[C@]1(C)C2CC[C@@]2(C)[C@H](c3ccoc3)OC(=O)C3OC321 (stereo partly shown) [Deacetoxy-7-oxisogedunin] | 41% | 84% | –
CC1(C)C(=O)C=C[C@]2(C)[C@H]3CC[C@@]4(C)[C@H](c5ccoc5)OC(=O)[C@H]5O[C@]54[C@]3(C)C(=O)C[C@@H]12 [Deacetoxy-7-oxogedunin] | 80% | 79% | –
CC1(C)C(=O)C=C[C@]2(C)[C@H]3CC[C@@]4(C)[C@H](c5ccoc5)OC(=O)[C@H]5O[C@]54[C@]3(C)[C@H](O)C[C@@H]12 [Deacetylgedunin] | – | – | % cell viability ([2]; green monkey): 86%; anti-Ebolavirus activity [3]: did not show any anti-Ebolavirus activity; inhibition at 5 µM [3]: 45%
CC(=O)O[C@@H]1C[C@H]2C(C)(C)C(=O)CC[C@]2(C)[C@H]2CC[C@@]3(C)[C@H](c4ccoc4)OC(=O)[C@H]4O[C@]43[C@@]21C [Dihydrogedunin] | – | – | % cell viability ([2]; green monkey): 79%; inhibition at 5 µM [3]: 96%
CCC(C)C(=O)O[C@@H]1C[C@@]2(C)[C@H](c3ccoc3)OC(=O)CC23OC2(C)OC34[C@H](OC(=O)C(C)C)[C@@]3(O)[C@@H](OC(=O)C5(C)OC5C)[C@@]5(C)C[C@]3(O)[C@@](C)([C@H]5CC(=O)OC)C14O2 (stereo partly shown) [Entandrophragmin] | −12% | 83% | –
CC(=O)O[C@@H]1CC2C(C)(C)C(=O)C3OC3[C@]2(C)C2CC[C@@]3(C)[C@H](c4ccoc4)OC(=O)C4OC43[C@@]21C (stereo partly shown) [Epoxygedunin] | 103% | 71% | % luc activity from the Ebolavirus minigenome [4]: 1.0%±0.1%; effect on protein expression from the Ebolavirus minigenome [4]: inhibit protein expression from the Ebolavirus minigenome; inhibition of EbolaΔVP30-GFP growth [5]: completely inhibited; CC50 [2]: > 10 µM; IC50 [3]: < 0.15 µM
CC(=O)O[C@@H]1CC2C(C)(C)[C@H](O)C=C[C@]2(C)C2CC[C@@]3(C)[C@H](c4ccoc4)OC(=O)C4OC43[C@@]21C (stereo partly shown) [Gedunol] | 79% | 82% | –
CCC(C)C(OC(C)=O)C(=O)O[C@H]1[C@H](O)[C@@H]2[C@@]3(C)C=CC(=O)C(C)(C)[C@@H]3C[C@@H](OC(=O)C(O)C(C)C)[C@@]2(C)[C@@]23O[C@@H]2C[C@@H](c2ccoc2)[C@]13C (stereo partly shown) [Heudelottin C] | 104% | 5% | –
CC(=O)O[C@@H]1CC2C(C)(C)C=CC(=O)[C@]2(C)C2CC[C@@]3(C)[C@H](c4ccoc4)OC(=O)C4OC43[C@@]21C (stereo partly shown) [Isogedunin] | 35% | 86% | –
CC(=O)O[C@H]1C[C@@H](OC(C)=O)C(C)(C)[C@@H]2C[C@@H](OC(C)=O)[C@]3(C)[C@H](CC[C@@]4(C)[C@H](c5ccoc5)OC(=O)[C@H]5O[C@@]534)[C@@]12C [Khivorin] | – | – | % cell viability ([2]; green monkey): 82%; inhibition at 5 µM [3]: 0%
C=C1[C@@H]([C@@]2(C)[C@@H](OC(C)=O)CC(=O)O[C@](C)(COC(C)=O)[C@@H]2C(=O)OC)[C@@H](OC=O)[C@H](OC(=O)[C@H](O)[C@H](C)CC)[C@@]2(C)[C@H](c3ccoc3)CC(=O)[C@]12O [Prieurianin] | – | – | % cell viability ([2]; green monkey): 89%; inhibition at 5 µM [3]: -17%
CCC(C)C(=O)O[C@@H]1C[C@@]2(C)[C@H](c3ccoc3)OC(=O)CC23OC2(C)O[C@]14[C@]1(C)[C@@H](CC(=O)OC)C5(C)CC1(O)[C@](O)(C5OC(=O)C1(C)OC1C)[C@@H](OC(C)=O)[C@]34O2 (stereo partly shown) [Utilin] | – | – | % cell viability ([2]; green monkey): 75%; inhibition at 5 µM [3]: 4%
Heudelottin E | −49% | 93% | –
